Legend:
[1] = molecular target: T1, Polyunsaturated fatty acid 5-lipoxygenase (Rattus norvegicus, UniProt P12527); experiment: Tested for inhibition of 5-Lipoxygenase (ARBL) in calcium-stimulated rat basophilic leukemia cells(RBL-1); assay type: cell-based
T1 sequence (P12527 whole entry): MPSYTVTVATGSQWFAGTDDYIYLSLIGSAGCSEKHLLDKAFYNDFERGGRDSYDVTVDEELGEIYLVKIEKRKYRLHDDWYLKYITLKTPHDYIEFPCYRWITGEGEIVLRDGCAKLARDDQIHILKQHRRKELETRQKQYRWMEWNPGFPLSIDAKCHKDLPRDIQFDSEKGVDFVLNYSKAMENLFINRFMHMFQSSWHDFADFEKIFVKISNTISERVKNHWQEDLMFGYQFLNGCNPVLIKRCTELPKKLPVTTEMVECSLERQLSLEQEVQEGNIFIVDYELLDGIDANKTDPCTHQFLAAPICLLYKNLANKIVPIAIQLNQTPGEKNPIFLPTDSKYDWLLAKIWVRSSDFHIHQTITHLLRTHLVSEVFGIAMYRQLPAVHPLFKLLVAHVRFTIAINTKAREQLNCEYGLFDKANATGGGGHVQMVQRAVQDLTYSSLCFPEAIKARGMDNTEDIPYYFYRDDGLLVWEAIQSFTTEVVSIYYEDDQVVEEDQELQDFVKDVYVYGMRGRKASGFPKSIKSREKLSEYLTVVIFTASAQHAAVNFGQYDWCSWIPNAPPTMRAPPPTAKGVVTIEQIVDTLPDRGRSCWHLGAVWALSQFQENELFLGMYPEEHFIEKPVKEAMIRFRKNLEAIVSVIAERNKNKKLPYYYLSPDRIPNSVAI

Cyclooxygenase = molecular target: T2, Cyclooxygenase (Rattus norvegicus, UniProt P35355+Q63921); conditions: rbl-1
T2 sequence (P35355 whole entry): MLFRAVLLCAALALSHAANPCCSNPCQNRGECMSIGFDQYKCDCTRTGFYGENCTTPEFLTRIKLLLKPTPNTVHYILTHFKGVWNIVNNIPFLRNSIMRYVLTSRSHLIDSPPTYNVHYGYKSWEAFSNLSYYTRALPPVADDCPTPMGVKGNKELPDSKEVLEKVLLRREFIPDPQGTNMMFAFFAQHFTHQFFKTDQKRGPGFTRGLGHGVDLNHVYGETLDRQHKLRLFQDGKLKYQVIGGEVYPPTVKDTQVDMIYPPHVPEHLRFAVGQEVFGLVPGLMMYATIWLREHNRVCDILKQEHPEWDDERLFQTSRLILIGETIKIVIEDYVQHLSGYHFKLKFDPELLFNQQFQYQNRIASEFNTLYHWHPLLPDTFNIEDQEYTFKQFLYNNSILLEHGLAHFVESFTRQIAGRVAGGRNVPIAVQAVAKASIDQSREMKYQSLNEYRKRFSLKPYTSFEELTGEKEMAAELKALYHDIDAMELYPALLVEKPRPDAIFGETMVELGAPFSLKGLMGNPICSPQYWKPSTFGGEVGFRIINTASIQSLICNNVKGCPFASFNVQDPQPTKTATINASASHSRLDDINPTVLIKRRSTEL
T2 sequence (Q63921 whole entry): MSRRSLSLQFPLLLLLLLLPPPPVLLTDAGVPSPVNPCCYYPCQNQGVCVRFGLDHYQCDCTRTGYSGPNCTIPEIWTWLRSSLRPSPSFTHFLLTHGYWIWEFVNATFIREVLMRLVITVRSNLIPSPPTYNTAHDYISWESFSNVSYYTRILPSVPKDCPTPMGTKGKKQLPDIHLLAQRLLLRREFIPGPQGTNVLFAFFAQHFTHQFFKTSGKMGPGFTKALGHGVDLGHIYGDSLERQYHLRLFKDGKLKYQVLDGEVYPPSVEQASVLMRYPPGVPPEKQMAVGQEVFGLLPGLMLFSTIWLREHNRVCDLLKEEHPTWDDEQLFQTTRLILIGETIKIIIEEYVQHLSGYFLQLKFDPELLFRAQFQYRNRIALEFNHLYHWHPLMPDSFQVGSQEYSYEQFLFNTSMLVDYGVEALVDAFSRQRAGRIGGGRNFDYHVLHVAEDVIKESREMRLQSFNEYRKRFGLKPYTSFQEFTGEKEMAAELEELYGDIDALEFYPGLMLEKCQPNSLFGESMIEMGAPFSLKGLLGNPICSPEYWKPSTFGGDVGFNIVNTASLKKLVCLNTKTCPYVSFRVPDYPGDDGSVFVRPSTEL
Description: Tested for inhibition of cyclooxygenase (ARBC) in calcium-stimulated rat basophilic leukemia cells(RBL-1)

COc1ccc2c(c1)c(CN(O)C(C)=O)c(C)n2C(=O)c1ccc(Cl)cc1
IC50 [1]: 1400 nM | IC50 (Cyclooxygenase): 15000 nM

COc1ccc2c(c1)c(C(C)N(O)C(C)=O)c(C)n2C(=O)c1ccc(Cl)cc1 (configuration not stated)
IC50 [1]: 830 nM | IC50 (Cyclooxygenase): 2400 nM

CNC(=S)N(O)C(C)c1c(C)n(C(=O)c2ccc(Cl)cc2)c2ccc(OC)cc12 (configuration not stated)
IC50 [1]: 570 nM | IC50 (Cyclooxygenase): 7000 nM

CNC(=S)N(O)Cc1c(C)n(C(=O)c2ccc(Cl)cc2)c2ccc(OC)cc12
IC50 (Cyclooxygenase): 7100 nM

COc1ccc2c(c1)c(CN(O)C(N)=O)c(C)n2C(=O)c1ccc(Cl)cc1
IC50 [1]: 340 nM | IC50 (Cyclooxygenase): > 20000 nM

COc1ccc2c(c1)c(C(C)N(O)C(N)=O)c(C)n2C(=O)c1ccc(Cl)cc1 (configuration not stated)
IC50 [1]: 1400 nM | IC50 (Cyclooxygenase): 890 nM

COc1ccc2c(c1)c(CC(=O)O)c(C)n2C(=O)c1ccc(Cl)cc1 [INDOMETHACIN]
IC50 [1]: > 100000 nM
